According to paper PMC12627007, “HIV nucleocapsid proteins as targets for novel 1,2-benzisothiazol-3(2H)-one benzenesulfonamides: synthesis and antiretroviral activity” (Frontiers in Microbiology, 2025):

Assays:
Assay type in all cases: cell-based
HIV-1 N119 (Y181C) = experiment: Inhibition of virus-induced cytopathogenicity in MT-4 cells, NNRTI-resistant mutant N119; settings: for EC50: Human immunodeficiency virus 1, MT4, read-out: EC50 N119; for Selectivity Index (SI = CC50/EC50) N119: in round brackets
Method: (§1) HIV-1IIIB and HIV-2 CBL-20 strains were obtained from the supernatants of persistently infected H9/IIIB and CEM cells, respectively. HIV-1 and HIV-2 stock solutions had titres of 4.5 × 10^7 and 1.4 × 10^6 50% cell culture infectious doses (CCID50)/ml, respectively. […] The K103R + V179D + P225H mutant (EFVR) was derived from an IIIB strain passaged in MT-4 cells in the presence of Efavirenz (up to 2 μM). N119, A17 and EFV^R stock solutions had titres of 1.2 × 10^8, 2.1 × 10^7, and 4.0 × 10^7 CCID50/ml, respectively.
(§2) The activity of the test compounds against the replication of HIV-1 wt and mutant strains (N119, A17, EFV^R, AZT^R, MDR, SAQ^R) and HIV-2 wt in acutely infected cells was based on the inhibition of virus-induced cytopathogenicity in MT-4 and C8166 cells, respectively. Briefly, 50 μL of culture medium containing 1 × 10^4 cells was added to each well of flat-bottom microtitre trays containing 50 μL of culture medium with or without different serial concentrations of test compounds. Then, 20 μL of an HIV suspension (containing the appropriate amount of CCID50 required to cause complete cytopathogenicity on day 4, final multiplicity of infection [m.o.i.] 0.01) was added.

[1] = test system: HIV-1 SAQR (L10F, G48V, L90M); experiment: Inhibition of virus-induced cytopathogenicity in MT-4 cells, PRI-resistant mutant SAQR; settings: for EC50: Human immunodeficiency virus 1, MT4, read-out: EC50 SAQR; for Selectivity Index (SI = CC50/EC50) SAQR: in round brackets
Method: as §1, §2

[2] = Cytotoxicity in mock-infected MT-4 cells (MTT method); settings: human
Method: as §2, with “added. After incubation at 37 °C, cell viability was determined using the […] (MTT) method ([Pauwels et al., 1988]). The cytotoxicity of the test compounds was evaluated in parallel with their antiviral activity through the viability of mock-infected, treated cells, as monitored by the MTT method and described elsewhere ([Morellet et al., 1994]).” for “added.”

[3] = test system: HIV-1 MDR (74V, 41L, 106A, 215Y); experiment: Inhibition of virus-induced cytopathogenicity in MT-4 cells, NRTI-resistant mutant MDR; settings: for EC50: Human immunodeficiency virus 1, MT4, read-out: EC50 MDR; for Selectivity Index (SI = CC50/EC50) MDR: in round brackets
Method: as §1, §2

HIV-1 IIIB strain = experiment: microbe, parasite or virus in culture; settings: for EC50: Human immunodeficiency virus 1, IIIB, MT4, read-out: EC50 HIV-1; for Selectivity Index (SI = CC50/EC50) HIV-1: IIIB strain, in round brackets
Method: as §1, §2

[4] = test system: HIV-1 A17 (K103N + Y181C); experiment: Inhibition of virus-induced cytopathogenicity in MT-4 cells, NNRTI-resistant mutant A17; settings: for EC50: Human immunodeficiency virus 1, MT4, read-out: EC50 A17; for Selectivity Index (SI = CC50/EC50) A17: in round brackets
Method: as §1, §2

[5] = test system: HIV-1 EFVR (K103R + V179D + P225H); experiment: Inhibition of virus-induced cytopathogenicity in MT-4 cells, NNRTI-resistant mutant EFVR; settings: for EC50: Human immunodeficiency virus 1, MT4, read-out: EC50 EFVR; for Selectivity Index (SI = CC50/EC50) EFVR: in round brackets
Method: as §1, §2

[6] = test system: HIV-1 AZTR (67N, 70R, 215F, 219Q); experiment: Inhibition of virus-induced cytopathogenicity in MT-4 cells, NRTI-resistant mutant AZTR; settings: for EC50: Human immunodeficiency virus 1, MT4, read-out: EC50 AZTR; for Selectivity Index (SI = CC50/EC50) AZTR: in round brackets
Method: as §1, §2

| Compound | EC50 (HIV-1 N119 (Y181C)) [µM] | Selectivity Index (SI = CC50/EC50) N119 (HIV-1 N119 (Y181C)) | EC50 [1] [µM] | CC50 at 4 days [2] [µM] | EC50 [3] [µM] | EC50 (HIV-1 IIIB strain) [µM] | Selectivity Index (SI = CC50/EC50) HIV-1 (HIV-1 IIIB strain) | EC50 [4] [µM] | Selectivity Index (SI = CC50/EC50) A17 [4] | EC50 [5] [µM] | Selectivity Index (SI = CC50/EC50) EFVR [5] | EC50 [6] [µM] | Selectivity Index (SI = CC50/EC50) SAQR [1] | Selectivity Index (SI = CC50/EC50) MDR [3] | Selectivity Index (SI = CC50/EC50) AZTR [6] |
| --- | --- | --- | --- | --- | --- | --- | --- | --- | --- | --- | --- | --- | --- | --- | --- |
| O=c1c2ccccc2sn1NS(=O)(=O)c1ccc([N+](=O)[O-])cc1 [Compound 8, 4-Nitro-N-(3-oxo-1,2-benzisothiazol-2(3H)-yl)benzenesulfonamide] | 7 ± 0.5 | > 14 | 8 ± 1 | > 100 | 6 ± 0.5 | 15 ± 4 | > 7 | 11 ± 2 | > 9 | 9 ± 2 | > 11 | 7 ± 0.7 | – | – | – |
| COc1ccc(S(=O)(=O)Nn2sc3ccccc3c2=O)cc1 [Compound 9, 4-Methoxy-N-(3-oxo-1,2-benzisothiazol-2(3H)-yl)benzenesulfonamide] | 6 ± 0.5 | 9 | 7 ± 1 | 56 ± 0.1 | 6 ± 0.7 | 8 ± 2 | 7 | 8 ± 1 | 7 | 6 ± 0.7 | 9 | 5 ± 1 | 8 | 9 | 11 |
| O=c1c2ccccc2sn1NS(=O)(=O)c1ccccc1F [Compound 10, 2-Fluoro-N-(3-oxo-1,2-benzisothiazol-2(3H)-yl)benzenesulfonamide] | 6 ± 3 | > 16 | 7 ± 1 | > 100 | 5 ± 0.5 | 7 ± 0.8 | > 14 | 7 ± 0.7 | > 14 | 5 ± 2 | > 20 | 6 ± 0.5 | > 14 | > 20 | > 16 |
| O=c1c2ccccc2sn1NS(=O)(=O)c1ccc(F)cc1 [Compound 11, 4-Fluoro-N-(3-oxo-1,2-benzisothiazol-2(3H)-yl)benzenesulfonamide] | 5 ± 0.5 | 10 | 4 ± 0.7 | 50 ± 4 | 6 ± 0.5 | 5 ± 2 | 10 | 5 ± 0.2 | 10 | 2 ± 0.7 | 25 | 5 ± 0.5 | 12 | 8 | 10 |
| O=c1c2ccccc2sn1NS(=O)(=O)c1ccccc1Cl [Compound 12, 2-Chloro-N-(3-oxo-1,2-benzisothiazol-2(3H)-yl)benzenesulfonamide] | 7 ± 0.7 | 10 | 9 ± 2 | 73 ± 3 | 7 ± 1 | 13 ± 2 | 5 | 11 ± 2 | 6 | 9 ± 0.5 | 8 | 9 ± 0.7 | 8 | 7 | 8 |
| O=c1c2ccccc2sn1NS(=O)(=O)c1ccc(Cl)cc1 [Compound 13, 4-Chloro-N-(3-oxo-1,2-benzisothiazol-2(3H)-yl)benzenesulfonamide] | 6 ± 0.9 | 5 | 8 ± 2 | 33 ± 0.1 | 7 ± 2 | 11 ± 4 | 3 | 8 ± 1.4 | 4 | 3 ± 1 | 10 | 7 ± 1 | 4 | 4 | 4 |
| O=c1c2ccccc2sn1NS(=O)(=O)c1cccc(Cl)c1 [Compound 14, 3-Chloro-N-(3-oxo-1,2-benzisothiazol-2(3H)-yl)benzenesulfonamide] | 7 ± 1.4 | 5 | 4 ± 0.7 | 40 ± 2 | 6 ± 1 | 5 ± 1 | 8 | 3 ± 1 | – | 7 ± 1 | – | 6 ± 0.7 | 10 | 6 | 6 |
| O=c1c2ccccc2sn1NS(=O)(=O)c1ccc(Cl)c(Cl)c1 [Compound 15, 3,4-Dichloro-N-(3-oxo-1,2-benzisothiazol-2(3H)-yl)benzenesulfonamide] | 7 ± 0.1 | 9 | 8 ± 2 | 66 ± 3 | 11 ± 3 | 15 ± 4 | 4 | 8 ± 2 | 8 | 8 ± 1.5 | 8 | 6 ± 1 | 8 | 6 | 11 |
| O=c1c2ccccc2sn1NS(=O)(=O)c1cc(Cl)cc(Cl)c1 [Compound 16, 3,5-Dichloro-N-(3-oxo-1,2-benzisothiazol-2(3H)-yl)benzenesulfonamide] | 7 ± 0.4 | 12 | 12 ± 2 | 86 ± 1 | 13 ± 2 | 16 ± 5 | 5 | 11 ± 2 | 7 | 10 ± 3 | 8 | 8 ± 0.7 | 7 | 6 | 10 |
